Measurements reported in patent publication US8741892B2, “Compounds” (Boehringer Ingelheim International GmbH, priority 2011, dated 2014).

Each molecule was assayed against T1, human recombinant mGluR5 (Homo sapiens, UniProt P41594) (assay: positive modulation of mGluR5, calcium based FLIPR assay). Conditions: HEK 293 cell line expressing human recombinant mGluR5; EC50 of the modulation from peak Ca fluorescence signal after glutamate at approx. 5% basal stimulation.
T1 construct: expressed in transfected cells; host or cells: HEK 293
T1 sequence (P41594 21-1212): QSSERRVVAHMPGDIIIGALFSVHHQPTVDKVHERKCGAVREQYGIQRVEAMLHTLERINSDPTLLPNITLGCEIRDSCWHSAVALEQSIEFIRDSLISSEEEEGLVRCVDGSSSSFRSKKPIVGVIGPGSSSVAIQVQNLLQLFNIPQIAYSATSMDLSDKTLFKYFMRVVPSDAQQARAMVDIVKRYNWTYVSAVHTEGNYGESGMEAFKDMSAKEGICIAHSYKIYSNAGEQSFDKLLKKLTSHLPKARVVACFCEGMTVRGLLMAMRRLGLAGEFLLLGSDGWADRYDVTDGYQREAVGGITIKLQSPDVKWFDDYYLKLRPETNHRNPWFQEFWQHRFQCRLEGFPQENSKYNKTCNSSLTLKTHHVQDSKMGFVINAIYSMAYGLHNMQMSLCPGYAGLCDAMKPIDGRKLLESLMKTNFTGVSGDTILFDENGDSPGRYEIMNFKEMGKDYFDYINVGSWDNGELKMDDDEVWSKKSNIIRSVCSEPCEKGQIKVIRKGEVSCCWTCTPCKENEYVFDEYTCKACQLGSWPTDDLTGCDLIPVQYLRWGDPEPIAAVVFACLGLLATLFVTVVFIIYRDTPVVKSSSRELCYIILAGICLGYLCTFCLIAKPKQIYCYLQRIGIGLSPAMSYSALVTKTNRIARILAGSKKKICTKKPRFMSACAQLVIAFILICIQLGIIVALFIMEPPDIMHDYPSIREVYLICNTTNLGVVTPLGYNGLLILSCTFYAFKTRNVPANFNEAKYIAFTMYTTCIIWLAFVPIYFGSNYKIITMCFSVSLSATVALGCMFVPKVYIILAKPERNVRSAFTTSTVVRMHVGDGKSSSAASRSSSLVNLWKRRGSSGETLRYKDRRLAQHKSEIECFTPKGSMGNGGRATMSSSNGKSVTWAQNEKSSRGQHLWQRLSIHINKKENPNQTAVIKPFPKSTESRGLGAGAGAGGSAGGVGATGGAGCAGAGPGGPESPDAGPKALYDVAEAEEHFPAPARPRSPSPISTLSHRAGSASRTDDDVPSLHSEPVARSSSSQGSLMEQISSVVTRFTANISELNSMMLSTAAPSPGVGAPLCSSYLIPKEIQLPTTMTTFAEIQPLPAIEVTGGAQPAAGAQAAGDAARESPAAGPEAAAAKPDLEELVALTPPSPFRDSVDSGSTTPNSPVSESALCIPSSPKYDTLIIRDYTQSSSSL
Method in brief: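 HEK 293 cells expressing human recombinant mGluR5, Calcium-4 dye-loaded in Ringer solution pH 7.4. Compound (1% DMSO final) preincubated 5 min, then glutamate at ~5% of maximal effect added; peak Ca2+ fluorescence gives EC50 by nonlinear regression, normalized to DMSO (100%) and 10 μM CDPPB (200%) controls.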

| EC50 | Structure (SMILES) |
| --- | --- |
| 689 nM | O=C(Cn1nc(-c2ccccc2)cc1-c1ccccc1)N1CCc2ncsc2CC1 [Example 7.02.004] |
| 186 nM | CCc1cc(-c2cc(C)c(F)c(C)c2)nn1CC(=O)N1CCc2nc(C)sc2CC1 [Example 7.02.132] |
| 398 nM | CCc1cc(-c2cc(C)c(F)c(C)c2)nn1CC(=O)N1Cc2nc(C)sc2C1 [Example 7.02.181] |
| 604 nM | Cc1coc(N2CCN(C(=O)Cn3nc(-c4ccc(F)c(C)c4)cc3C)CC2)n1 [Example 7.02.168] |
| 285 nM | O=C(Cn1nc(-c2ccccc2)cc1-c1ccccc1)N1CCN(c2nnc(C(F)(F)F)s2)CC1 [Example 7.01.042] |
| 66 nM | Cc1ccc(-c2cc(-c3ccccc3)n(CC(=O)N3CCc4nc(N)sc4CC3)n2)nc1 [Example 7.02.117] |
| 789 nM | O=C(Cn1nc(-c2ccccc2)cc1-c1ccccc1)N1CCC(c2nnc(-c3ccc(F)cc3)o2)CC1 [Example 7.01.047] |
| 48 nM | Cc1nc2c(s1)CN(C(=O)Cn1nc(-c3cccc(Cl)c3)cc1-c1ccccc1)C2 [Example 7.02.143] |
| 1530 nM | CC(=O)Nc1nc2c(s1)CCN(C(=O)Cn1nc(-c3ccccc3)cc1-c1ccccc1)CC2 [Example 7.01.021] |
| 15 nM | COc1cc(-c2cc(-c3ccccc3)n(CC(=O)N3CCc4nc(C)sc4CC3)n2)ccc1F [Example 7.02.148] |
| 28 nM | COc1cc(C2=CCN(C(=O)Cn3nc(-c4ccc(C)c(C)c4)cc3-c3ccccc3)CC2)ncn1 [Example 7.02.087] |
| 35 nM | COCc1nnc(C2CCN(C(=O)Cn3nc(-c4ccc(F)c(C)c4)cc3-c3ccccc3)CC2)o1 [Example 7.02.227] |
| 68 nM | Cc1cc(-c2cc(-c3ccccc3)n(CC(=O)N3CCC(c4nnc(C(C)C)o4)CC3)n2)ccc1F [Example 7.02.017] |
| 141 nM | COc1cccc(C2=CCN(C(=O)Cn3nc(-c4ccc(F)c(C)c4)cc3-c3ccccc3)CC2)c1 [Example 7.02.136] |
| 23 nM | CCc1nnc(N2CCN(C(=O)Cn3nc(-c4ccc(F)c(C)c4)cc3-c3ccccc3)CC2)o1 [Example 7.02.160] |
| 274 nM | Cc1cc(-c2cc(-c3ccccc3)n(CC(=O)N3CCc4ncc(C)n4CC3)n2)ccc1F [Example 7.01.086] |
| 34 nM | Cc1nc2c(s1)CCN(C(=O)Cn1nc(-c3ccc(C)c(F)c3)cc1-c1ccccc1)CC2 [Example 7.02.251] |
| 190 nM | COc1cc(-c2cc(C(C)C)n(CC(=O)N3CCc4nc(C)sc4CC3)n2)ccc1F [Example 7.02.051] |
| 573 nM | O=C(Cn1nc(-c2ccccc2)cc1-c1ccccc1)N1CCN(c2nccc3sccc23)CC1 [Example 7.01.048] |
| 16 nM | Cc1nc2c(o1)CN(C(=O)Cn1nc(-c3ccc(C(F)F)cc3)cc1-c1ccccc1)C2 [Example 7.02.257] |
| 30 nM | Cc1nc(N2CCN(C(=O)Cn3nc(-c4ccc(OC(F)F)cn4)cc3-c3ccccc3)CC2)no1 [Example 7.02.235] |
| 878 nM | CCc1cc(-c2ccc(F)c(C)c2)nn1CC(=O)N1Cc2cccnc2C1 [Example 7.02.230] |
| 30 nM | Cc1nc2c(s1)CCN(C(=O)Cn1nc(-c3ccc(F)c(C)n3)cc1-c1ccccc1)CC2 [Example 7.02.170] |
| 90 nM | Cc1cc(-c2cc(-c3ccccc3)n(CC(=O)N3CCc4nc(N)oc4CC3)n2)ccc1F [Example 7.01.094] |

| EC50 | Structure (SMILES) |
| --- | --- |
| 68 nM | Cc1nc2c(s1)CN(C(=O)Cn1nc(-c3ccc(C)c(C)n3)cc1-c1ccccc1)C2 [Example 7.02.124] |
| 34 nM | COCCCc1cc(-c2ccc(F)c(C)c2)nn1CC(=O)N1CCc2nc(C)sc2CC1 [Example 7.02.103] |
| 253 nM | COCc1cc(-c2ccc(F)c(C)c2)nn1CC(=O)N1CCc2nc(N)sc2CC1 [Example 7.01.056] |
| 48 nM | Cc1nc2c(o1)CN(C(=O)Cn1nc(-c3ccc(OC(F)F)cn3)cc1-c1ccccc1)C2 [Example 7.02.244] |
| 59 nM | Cc1nc2c(s1)CCN(C(=O)Cn1nc(-c3cc(C)c(F)cn3)cc1-c1ccccc1)CC2 [Example 7.02.175] |
| 1610 nM | CCc1cc(-c2cccc(C#N)c2)nn1CC(=O)N1CCN(c2nnc(C)o2)CC1 [Example 7.02.187] |
| 125 nM | Cc1cc(-c2cc(-c3ccccc3)n(CC(=O)N3CCc4ccccc4C3)n2)ccc1F [Example 7.01.087] |
| 18 nM | CCc1cc(-c2ccc(F)c(C)c2)nn1CC(=O)N1CC=C(c2ncc(C)o2)CC1 [Example 7.02.205] |
| 13 nM | Cc1nc2c(s1)CCN(C(=O)Cn1nc(-c3ccc(F)cc3)cc1-c1ccc(F)cc1)CC2 [Example 7.02.010] |
| 796 nM | CC(C)c1ncc2c(n1)CCN(C(=O)Cn1nc(-c3ccccc3)cc1-c1ccccc1)C2 [Example 7.01.029] |
| 293 nM | CCc1cc(-c2ccc(C)c(C)c2)nn1CC(=O)N1CC=C(c2ncc(OC)cn2)CC1 [Example 7.02.076] |
| 290 nM | CCc1cc(-c2ccc(F)c(C)c2)nn1CC(=O)N1CCN(c2nnc(C)o2)CC1 [Example 7.02.220] |
| 19 nM | Cc1nc2n(n1)CCN(C(=O)Cn1nc(-c3ccc(F)c(C)c3)cc1-c1ccccc1)CC2 [Example 7.02.231] |
| 1070 nM | Cc1nnc(N2CCN(C(=O)Cn3nc(-c4cc(C)c(F)cn4)cc3-c3ccccc3)CC2)o1 [Example 7.02.180] |
| 148 nM | CCc1cc(-c2ccc(F)c(C)c2)nn1CC(=O)N1Cc2nc(C)sc2C1 [Example 7.02.025] |
| 297 nM | COc1cccc(-c2cc(C3CCCCC3)n(CC(=O)N3CCc4nc(N)sc4CC3)n2)c1 [Example 7.02.052] |
| 184 nM | CCCc1cc(-c2ccc(F)c(C)n2)nn1CC(=O)N1Cc2nc(C)oc2C1 [Example 7.02.249] |
| 41 nM | Cc1nc2c(o1)CN(C(=O)Cn1nc(-c3ccc(C)c(F)c3)cc1-c1ccccc1)C2 [Example 7.02.253] |
| 870 nM | O=C(Cn1nc(-c2ccccc2)cc1-c1ccccc1)N1CCc2cn[nH]c2CC1 [Example 7.01.006] |
| 740 nM | COCc1cc(-c2ccc(F)c(C)c2)nn1CC(=O)N1CCc2nc(C)oc2C1 [Example 7.01.057] |
| 59 nM | COc1cnc(C2CCN(C(=O)Cn3nc(-c4ccc(C)c(C)c4)cc3-c3ccccc3)CC2)nc1 [Example 7.02.089] |
| 122 nM | CCc1nnc(N2CCN(C(=O)Cn3nc(-c4ccc(F)c(C)c4)cc3CC)CC2)o1 [Example 7.02.163] |
| 65 nM | Cc1nnc(N2CCN(C(=O)Cn3nc(-c4ccc(C)c(F)c4)cc3-c3ccccc3)CC2)o1 [Example 7.02.250] |
| 334 nM | CCc1cc(-c2cccc(Cl)c2)nn1CC(=O)N1Cc2nc(C)sc2C1 [Example 7.02.111] |

| EC50 | Structure (SMILES) |
| --- | --- |
| 277 nM | Cc1cc(-c2cc(-c3ccccc3)n(CC(=O)N3CCc4cnc(Nc5ccccc5)nc4CC3)n2)ccc1F [Example 7.01.080] |
| 12 nM | Cc1cnc(C2CCN(C(=O)Cn3nc(-c4ccc(F)c(C)c4)cc3-c3ccccc3)CC2)o1 [Example 7.02.098] |
| 39 nM | Cc1nc(N2CCN(C(=O)Cn3nc(-c4ccc(F)c(C)n4)cc3-c3ccccc3)CC2)no1 [Example 7.02.174] |
| 138 nM | CCc1cc(-c2ccc(F)c(C)c2)nn1CC(=O)N1CCC(c2ncc(C)s2)CC1 [Example 7.02.141] |
| 236 nM | CCc1cc(-c2ccc(C)c(F)c2)nn1CC(=O)N1Cc2nc(C)oc2C1 [Example 7.02.245] |
| 19 nM | Cc1cnc(C2=CCN(C(=O)Cn3nc(-c4cccc(C#N)c4)cc3-c3ccccc3)CC2)o1 [Example 7.02.188] |
| 54 nM | CCc1nnc(C2CCN(C(=O)Cn3nc(-c4ccc(F)c(C)c4)cc3-c3ccccc3)CC2)o1 [Example 7.02.218] |
| 221 nM | Cc1nc2c(s1)CN(C(=O)Cn1nc(-c3cc(C)c(F)cn3)cc1-c1ccccc1)C2 [Example 7.02.176] |
| 1540 nM | O=C(Cn1nc(-c2ccccc2)cc1-c1ccccc1)N1CCc2c(F)cccc2C1 [Example 7.01.009] |
| 55 nM | Nc1nc2c(s1)CCN(C(=O)Cn1nc(-c3ccc(F)cc3)cc1-c1ccc(F)cc1)CC2 [Example 7.02.001, 1-(2-Amino-4,5,7,8-tetrahydro-thiazolo (4,5-d)azepin-6-yl)-2-[3,5-bis-(4-fluoro-phenyl)-pyrazol-1-yl]-ethanone] |
| 1660 nM | O=C(Cn1nc(-c2ccccc2)cc1-c1ccccc1)N1CCN(c2ccc(F)cc2)C(=O)C1 [Example 7.01.019] |
| 18 nM | Cc1cc(-c2cc(-c3ccccc3)n(CC(=O)N3CC=C(c4ncc(F)cn4)CC3)n2)ccc1F [Example 7.02.099] |
| 290 nM | Cc1nnc(C2CCN(C(=O)Cn3nc(-c4cccc(C#N)c4)cc3-c3ccccc3)CC2)o1 [Example 7.02.193] |
| 26 nM | Cc1nc2c(o1)CCN(C(=O)Cn1nc(-c3ccc(F)c(C)c3)cc1-c1ccccc1)C2 [Example 7.01.085] |
| 42 nM | COc1cc(-c2cc(-c3ccccc3)n(CC(=O)N3CCc4nc(N)sc4CC3)n2)ccc1F [Example 7.02.149] |
| 6 nM | Cc1cc(-c2cc(-c3ccccc3)n(CC(=O)N3CCN(c4nccs4)CC3)n2)ccc1F [Example 7.02.216] |
| 177 nM | COc1cccc(N2CCN(C(=O)Cn3nc(-c4cc(C)c(C)cn4)cc3-c3ccccc3)CC2=O)c1 [Example 7.02.064] |
| 6 nM | CCCc1cc(-c2ccc(F)c(C)c2)nn1CC(=O)N1CCc2nc(C)sc2CC1 [Example 7.02.067] |
| 1440 nM | Cc1ccc(NC2CCN(C(=O)Cn3nc(-c4ccccc4)cc3-c3ccccc3)CC2)c(C)c1 [Example 7.01.051] |
| 70 nM | CCc1cc(-c2ccc(F)c(C)c2)nn1CC(=O)N1CCC(c2ncc(C)o2)CC1 [Example 7.02.207] |
| 48 nM | COCCCc1cc(-c2ccc(F)c(C)c2)nn1CC(=O)N1CCc2nc(N)sc2CC1 [Example 7.02.104] |
| 380 nM | CCc1cc(-c2ccc(F)c(C)c2)nn1CC(=O)N1CCc2nc(NC(C)=O)sc2CC1 [Example 7.01.069] |
| 1260 nM | O=C(Cn1nc(-c2ccccc2)cc1-c1ccccc1)N1CCc2nc(-c3ccccc3)ncc2C1 [Example 7.02.005] |
